Test results as given in ChEMBL document CHEMBL6078670, “Discovery of a potent and selective TRPC3 antagonist with neuroprotective effects” (Bioorg Med Chem, 2025).
Values after ≈ are worked out from the molar mass of the structure shown. Active and inactive are the calls of the source. No cut-off for these calls is given here.

Columns and labels:
[1] = Kinetic solubility of the compound in ph 7.4 PBS buffer measured after 24 hrs shaken by HPLC and UPLC system; type: physicochemical; details: read-out: Kinetic_solubility
[2] = test system: Hippocampal neurone; assay: (§1) Rescuing beta-amyloid induced neuronal cell damage in Sprague-Dawley rat primary hippocampal cell culture (composed of 60% primary neuron, 20% microglia and 20% astrocyte) assessed as decrease in soluble oligomeric Abeta-containing media (7PA2 cells) induced synaptic toxicity at 100 nM; type: functional, cell-based
[3] = molecular target: Short transient receptor potential channel 1 (Rattus norvegicus) (UniProt Q9QX01); assay: Antagonist activity at rat TRPC1 expressed in HEK293 cells assessed as inhibition of carbachol-induced activity at 10 uM measured after 48 hrs by Whole-cell patch clamp electrophysiology; type: cell-based
Short transient receptor potential channel 1 (Rattus norvegicus), sequence (Q9QX01 whole entry): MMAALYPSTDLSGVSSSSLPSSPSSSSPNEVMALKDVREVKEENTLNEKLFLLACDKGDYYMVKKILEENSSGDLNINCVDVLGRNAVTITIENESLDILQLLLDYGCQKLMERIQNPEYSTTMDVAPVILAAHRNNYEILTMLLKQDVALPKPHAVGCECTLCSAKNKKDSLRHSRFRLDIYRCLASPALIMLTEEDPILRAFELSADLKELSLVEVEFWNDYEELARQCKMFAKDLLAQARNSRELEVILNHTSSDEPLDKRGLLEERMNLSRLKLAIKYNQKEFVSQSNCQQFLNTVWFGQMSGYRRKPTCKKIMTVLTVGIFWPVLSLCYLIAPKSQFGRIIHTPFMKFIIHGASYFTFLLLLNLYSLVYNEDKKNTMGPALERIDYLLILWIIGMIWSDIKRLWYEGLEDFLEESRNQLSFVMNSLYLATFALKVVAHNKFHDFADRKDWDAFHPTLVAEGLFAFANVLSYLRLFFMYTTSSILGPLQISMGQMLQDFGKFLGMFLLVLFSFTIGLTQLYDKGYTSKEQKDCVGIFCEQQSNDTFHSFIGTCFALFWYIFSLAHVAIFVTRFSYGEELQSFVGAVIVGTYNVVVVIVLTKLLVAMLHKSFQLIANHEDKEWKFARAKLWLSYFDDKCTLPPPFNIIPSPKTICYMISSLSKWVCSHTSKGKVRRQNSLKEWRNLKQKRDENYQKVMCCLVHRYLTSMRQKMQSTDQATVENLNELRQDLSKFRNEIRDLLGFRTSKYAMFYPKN

[4] = test system: Hippocampal neurone; assay: as §1, with “functional synapses by measuring decrease in PSD95 clustering level” for “synaptic toxicity”; type: cell-based
[5] = test system: Hippocampal neurone; assay: as §1, with “astrogliosis (GFAP)” for “synaptic toxicity”, “500” for “100”, “nM by immunostaining analysis” for “nM”; type: functional, cell-based
[6] = molecular target: T1, Short transient receptor potential channel 7 (Homo sapiens) (UniProt Q9HCX4); assay: Antagonist activity at human TRPC7 expressed in HEK293 cells assessed as inhibition of carbachol-induced activity at 10 uM measured after 48 hrs by Whole-cell patch clamp electrophysiology; type: cell-based
T1 sequence (whole entry): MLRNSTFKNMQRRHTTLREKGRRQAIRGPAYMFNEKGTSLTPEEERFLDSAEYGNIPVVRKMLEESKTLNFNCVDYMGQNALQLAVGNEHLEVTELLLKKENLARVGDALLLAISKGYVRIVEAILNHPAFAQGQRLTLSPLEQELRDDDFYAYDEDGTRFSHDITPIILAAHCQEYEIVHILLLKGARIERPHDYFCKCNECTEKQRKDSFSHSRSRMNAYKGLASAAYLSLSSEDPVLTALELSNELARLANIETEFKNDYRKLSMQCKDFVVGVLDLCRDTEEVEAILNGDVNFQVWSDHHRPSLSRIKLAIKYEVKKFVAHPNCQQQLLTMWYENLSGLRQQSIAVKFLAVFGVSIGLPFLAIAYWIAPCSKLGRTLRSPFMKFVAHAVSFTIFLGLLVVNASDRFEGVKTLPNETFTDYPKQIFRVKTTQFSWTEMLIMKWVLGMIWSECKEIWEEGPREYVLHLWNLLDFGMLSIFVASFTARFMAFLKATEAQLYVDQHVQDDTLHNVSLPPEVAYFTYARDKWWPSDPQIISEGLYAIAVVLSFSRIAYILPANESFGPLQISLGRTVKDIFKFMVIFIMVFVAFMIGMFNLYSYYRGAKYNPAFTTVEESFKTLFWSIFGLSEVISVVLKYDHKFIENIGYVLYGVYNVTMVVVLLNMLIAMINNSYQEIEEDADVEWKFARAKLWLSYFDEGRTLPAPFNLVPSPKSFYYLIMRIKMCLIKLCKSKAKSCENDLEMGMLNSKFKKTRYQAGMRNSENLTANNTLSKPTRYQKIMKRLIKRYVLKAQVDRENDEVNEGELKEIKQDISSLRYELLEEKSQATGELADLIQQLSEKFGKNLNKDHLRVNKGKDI

[7] = test system: Hippocampal neurone; assay: as §1, with “functional synapses by measuring decrease in SynI clustering level” for “synaptic toxicity”; type: cell-based
[8] = Metabolic stability in human liver microsomes assessed as half life measured up to 60 mins by LC-MS/MS analysis; type: ADME, Microsome; details: 1 h
[9] = Metabolic stability in mouse liver microsomes assessed as intrinsic clearance measured up to 60 mins by LC-MS/MS analysis; type: ADME, Microsome; details: 1 h
[10] = molecular target: T2, Cytochrome P450 1A2 (Homo sapiens, UniProt P05177); assay: Inhibition of human liver microsomes CYP1A2 measured after 10 mins incubation by LC-MS analysis; type: ADME, Microsome
T2 sequence (P05177 whole entry): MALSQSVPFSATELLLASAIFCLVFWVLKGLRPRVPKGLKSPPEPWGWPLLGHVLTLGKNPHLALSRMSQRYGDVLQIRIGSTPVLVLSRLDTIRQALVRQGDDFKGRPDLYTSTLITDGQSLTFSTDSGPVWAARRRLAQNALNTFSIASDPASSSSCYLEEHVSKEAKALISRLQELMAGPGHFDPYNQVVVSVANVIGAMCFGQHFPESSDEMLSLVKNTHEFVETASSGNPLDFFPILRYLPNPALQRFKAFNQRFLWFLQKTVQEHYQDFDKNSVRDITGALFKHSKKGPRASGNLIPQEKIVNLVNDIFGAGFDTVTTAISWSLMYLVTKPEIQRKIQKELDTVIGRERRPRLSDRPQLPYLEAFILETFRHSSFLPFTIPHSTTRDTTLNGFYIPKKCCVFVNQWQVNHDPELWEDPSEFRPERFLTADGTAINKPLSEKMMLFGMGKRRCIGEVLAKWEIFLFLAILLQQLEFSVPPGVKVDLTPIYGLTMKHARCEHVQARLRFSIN

[11] = molecular target: Transient receptor potential cation channel subfamily M member 8 (Rattus norvegicus) (UniProt Q8R455); assay: Antagonist activity at rat TRPM8 expressed in HEK293 cells assessed as inhibition of carbachol-induced activity at 10 uM measured after 48 hrs by Whole-cell patch clamp electrophysiology; type: cell-based
Transient receptor potential cation channel subfamily M member 8 (Rattus norvegicus), sequence (Q8R455 whole entry, looked up): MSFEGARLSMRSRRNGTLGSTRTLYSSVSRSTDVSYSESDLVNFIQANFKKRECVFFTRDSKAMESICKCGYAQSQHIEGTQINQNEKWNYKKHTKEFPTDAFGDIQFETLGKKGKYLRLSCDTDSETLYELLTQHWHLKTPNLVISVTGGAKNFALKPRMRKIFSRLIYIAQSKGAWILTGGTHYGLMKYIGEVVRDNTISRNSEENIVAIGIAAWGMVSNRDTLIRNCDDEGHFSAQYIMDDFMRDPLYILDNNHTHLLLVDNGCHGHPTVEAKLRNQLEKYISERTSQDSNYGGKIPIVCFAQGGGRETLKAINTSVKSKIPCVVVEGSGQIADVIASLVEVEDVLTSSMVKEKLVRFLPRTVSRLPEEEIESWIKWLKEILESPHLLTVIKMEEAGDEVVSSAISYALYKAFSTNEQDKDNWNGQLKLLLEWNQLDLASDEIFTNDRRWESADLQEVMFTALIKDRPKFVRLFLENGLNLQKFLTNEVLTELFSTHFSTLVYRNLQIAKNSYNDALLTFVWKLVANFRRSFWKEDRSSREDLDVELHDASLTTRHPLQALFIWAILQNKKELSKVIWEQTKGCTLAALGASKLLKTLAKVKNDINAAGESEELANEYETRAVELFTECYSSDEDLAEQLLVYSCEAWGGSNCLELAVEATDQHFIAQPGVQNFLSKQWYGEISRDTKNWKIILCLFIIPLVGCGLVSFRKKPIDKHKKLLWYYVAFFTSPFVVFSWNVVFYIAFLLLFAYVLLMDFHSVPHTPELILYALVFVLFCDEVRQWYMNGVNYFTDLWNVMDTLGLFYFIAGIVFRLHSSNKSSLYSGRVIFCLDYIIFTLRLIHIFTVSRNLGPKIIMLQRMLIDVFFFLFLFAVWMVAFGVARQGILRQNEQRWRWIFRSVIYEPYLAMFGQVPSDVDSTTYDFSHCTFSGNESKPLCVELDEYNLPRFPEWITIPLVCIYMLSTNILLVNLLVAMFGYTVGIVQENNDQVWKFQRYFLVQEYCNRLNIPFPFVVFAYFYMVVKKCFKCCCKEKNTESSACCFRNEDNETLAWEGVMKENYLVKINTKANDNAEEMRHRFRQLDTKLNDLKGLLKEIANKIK

[12] = molecular target: Cytochrome P450 2C9 (Homo sapiens, UniProt P11712); assay: Inhibition of human liver microsomes CYP2C9 measured after 10 mins incubation by LC-MS analysis; type: ADME, Microsome
Cytochrome P450 2C9, sequence (P11712 whole entry): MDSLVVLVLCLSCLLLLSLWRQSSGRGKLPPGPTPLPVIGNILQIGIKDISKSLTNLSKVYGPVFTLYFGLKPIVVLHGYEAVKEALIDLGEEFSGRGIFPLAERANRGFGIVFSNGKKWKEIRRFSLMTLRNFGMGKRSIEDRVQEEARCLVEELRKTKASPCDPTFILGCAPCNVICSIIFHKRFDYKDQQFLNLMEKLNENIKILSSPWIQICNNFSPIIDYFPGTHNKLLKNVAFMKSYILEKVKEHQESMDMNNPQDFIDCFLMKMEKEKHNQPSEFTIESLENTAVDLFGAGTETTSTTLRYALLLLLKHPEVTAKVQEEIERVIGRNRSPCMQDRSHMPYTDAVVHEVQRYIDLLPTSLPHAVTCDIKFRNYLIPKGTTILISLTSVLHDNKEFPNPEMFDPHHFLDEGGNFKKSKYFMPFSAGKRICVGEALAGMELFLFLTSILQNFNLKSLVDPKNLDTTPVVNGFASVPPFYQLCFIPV

[13] = molecular target: Cytochrome P450 2C19 (Homo sapiens, UniProt P33261); assay: Inhibition of human liver microsomes CYP2C19 measured after 10 mins incubation by LC-MS analysis; type: ADME, Microsome
Cytochrome P450 2C19, sequence (P33261 whole entry): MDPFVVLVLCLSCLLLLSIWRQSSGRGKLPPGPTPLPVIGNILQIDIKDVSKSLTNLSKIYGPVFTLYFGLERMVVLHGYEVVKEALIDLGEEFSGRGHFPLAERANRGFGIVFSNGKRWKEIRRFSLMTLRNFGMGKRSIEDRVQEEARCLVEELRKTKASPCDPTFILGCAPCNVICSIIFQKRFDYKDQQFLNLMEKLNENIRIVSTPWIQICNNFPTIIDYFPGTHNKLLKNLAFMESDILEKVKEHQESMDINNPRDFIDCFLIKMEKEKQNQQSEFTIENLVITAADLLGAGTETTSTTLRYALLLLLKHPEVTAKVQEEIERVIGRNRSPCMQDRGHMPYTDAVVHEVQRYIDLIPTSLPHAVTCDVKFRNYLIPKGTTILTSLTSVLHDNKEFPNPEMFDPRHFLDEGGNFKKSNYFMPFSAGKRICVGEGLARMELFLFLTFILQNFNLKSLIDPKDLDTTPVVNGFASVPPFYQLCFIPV

solubility kinetic at 24 h [1]: 0.2 µM (≈ 0.0862 µg/mL)
Activity [3]: inactive
Activity [6]: inactive
t1/2 [8]: 3.17 h
CLH [9]: 33 µL/min/mg
IC50 [10]: > 50 µM
Activity [11]: inactive
IC50 [12]: > 50 µM
IC50 [13]: 41.5 µM
Structure (SMILES): CCNCc1cnn(-c2ccc(-n3ccc(Cl)c(Cl)c3=O)cc2)c1C(F)(F)F
Activity [2]: Active
Activity [4]: Active
Activity [5]: Active
Activity [7]: Active
